Values joined by “and” are separate entries in the source; they are usually repeats but may differ in a detail not shown here. Equal entries are not always repeated. Toxic doses and inconclusive results are not listed.
System: P388 leukemia ip, CD2F1 mice, survival T/C
Experiment: NCI In Vivo Anticancer Drug Screen. Data for tumor model P388 Leukemia (intraperitoneal) in CD2F1 (CDF1) mice
Conditions: endpoint: median survival time, higher = longer survival
Summary of the method: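 Mice carrying the transplanted tumor received test compound or vehicle. Survival was recorded in each group, and the value is the treated-group measurement divided by that of the vehicle-treated control group.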

[1] = dose: 60.0 mg/kg/injection, schedule: Q01DX005 (ip), vehicle: saline with Tween-80
[2] = dose: 120.0 mg/kg/injection, schedule: Q01DX005 (ip), vehicle: saline with Tween-80
[3] = dose: 240.0 mg/kg/injection, schedule: Q01DX005 (ip), vehicle: saline with Tween-80
[4] = dose: 100.0 mg/kg/injection, schedule: Q04DX003 (ip), vehicle: saline with Tween-80
[5] = dose: 200.0 mg/kg/injection, schedule: Q04DX003 (ip), vehicle: saline with Tween-80
[6] = dose: 50.0 mg/kg/injection, schedule: Q01DX005 (ip), vehicle: Klucel (hydroxypropylcellulose) (HPC)
[7] = dose: 100.0 mg/kg/injection, schedule: Q01DX005 (ip), vehicle: Klucel (hydroxypropylcellulose) (HPC)
[8] = dose: 60.0 mg/kg/injection, schedule: Q01DX005 (ip), vehicle: saline

**Q.** What does the source list for `S=C(Nc1ccc(Cl)c(Cl)c1)SCc1ccc2c(c1)OCO2`?
**A.** T/C (dose: 12.5 mg/kg/injection, schedule: Q01DX009 (ip), vehicle: Klucel (hydroxypropylcellulose) (HPC)): 116 % of control; T/C (dose: 25.0 mg/kg/injection, schedule: Q01DX009 (ip), vehicle: Klucel (hydroxypropylcellulose) (HPC)): 120 % of control; T/C (dose: 50.0 mg/kg/injection, schedule: Q01DX009 (ip), vehicle: Klucel (hydroxypropylcellulose) (HPC)): 121 % of control; T/C (dose: 100.0 mg/kg/injection, schedule: Q01DX009 (ip), vehicle: Klucel (hydroxypropylcellulose) (HPC)): 112 % of control and 97 % of control

**Q.** What does the source list for `S=C1N(c2ccc(Br)cc2)C2=Nc3ccccc3SC(=C2N=Nc2ccccc2)N1c1ccc(Cl)cc1`?
**A.** T/C (dose: 50.0 mg/kg/injection, schedule: Q01DX005 (ip), vehicle: saline with Tween-80): 94 % of control; T/C (dose: 100.0 mg/kg/injection, schedule: Q01DX005 (ip), vehicle: saline with Tween-80): 90 % of control; T/C (dose: 200.0 mg/kg/injection, schedule: Q01DX005 (ip), vehicle: saline with Tween-80): 93 % of control

**Q.** Which results are given for `Nc1nc(N)c2[nH]c(CNc3ccc(C(=O)O)cc3)nc2n1`?
**A.** T/C [1]: 89 % of control; T/C [2]: 89 % of control; T/C [3]: 86 % of control

**Q.** How did the T/C (dose: 25.0 mg/kg/injection, schedule: Q01DX005 (ip), vehicle: water) turn out when `COC(=O)C(CO)NC(=O)OCc1ccccc1` (stereo not drawn) was run?
**A.** 99 % of control

**Q.** And the T/C (dose: 50.0 mg/kg/injection, schedule: Q01DX005 (ip), vehicle: water)?
**A.** 94 % of control

**Q.** What about the T/C (dose: 50.0 mg/kg/injection, schedule: Q01DX009 (ip), vehicle: distilled water + alcohol) of the same molecule?
**A.** 95 % of control

**Q.** And the T/C (dose: 100.0 mg/kg/injection, schedule: Q01DX005 (ip), vehicle: water)?
**A.** 105 % of control

**Q.** What about the T/C (dose: 100.0 mg/kg/injection, schedule: Q01DX009 (ip), vehicle: distilled water + alcohol) of the same molecule?
**A.** 98 % of control

**Q.** And the T/C (dose: 200.0 mg/kg/injection, schedule: Q01DX005 (ip), vehicle: water)?
**A.** 99 % of control

**Q.** What about the T/C (dose: 200.0 mg/kg/injection, schedule: Q01DX009 (ip), vehicle: distilled water + alcohol) of the same molecule?
**A.** 100 % of control

**Q.** What about the T/C (dose: 400.0 mg/kg/injection, schedule: Q01DX009 (ip), vehicle: distilled water + alcohol) of the same molecule?
**A.** 96 % of control

**Q.** For `NC(CC(=O)O)C(=O)OCc1cccc(N=Nc2ccccc2)c1` (stereo not drawn), which T/C (dose: 50.0 mg/kg/injection, schedule: Q04DX003 (ip), vehicle: saline with Tween-80) is on record?
**A.** 99 % of control

**Q.** And the T/C [4]?
**A.** 90 % of control

**Q.** What about the T/C [5] of the same molecule?
**A.** 93 % of control

**Q.** With `O=S(=O)(NO)c1cccc(S(=O)(=O)NO)c1` as the molecule, how does the T/C (dose: 25.0 mg/kg/injection, schedule: Q04DX003 (ip), vehicle: saline) read?
**A.** 110 % of control

**Q.** And the T/C (dose: 50.0 mg/kg/injection, schedule: Q04DX003 (ip), vehicle: saline)?
**A.** 115 % of control

**Q.** What about the T/C (dose: 100.0 mg/kg/injection, schedule: Q04DX003 (ip), vehicle: saline) of the same molecule?
**A.** 110 % of control

**Q.** `CC1(c2ccccc2)NC(=O)N(CC(=O)N(c2ccccc2)c2ccccc2)C1=O` (stereo not drawn) was tested. Which T/C (dose: 7.5 mg/kg/injection, schedule: Q01DX005 (ip), vehicle: saline with Tween-80) did it give?
**A.** 91 % of control

**Q.** What about the T/C (dose: 15.0 mg/kg/injection, schedule: Q01DX005 (ip), vehicle: saline with Tween-80) of the same molecule?
**A.** 92 % of control

**Q.** And the T/C (dose: 30.0 mg/kg/injection, schedule: Q01DX005 (ip), vehicle: saline with Tween-80)?
**A.** 92 % of control and 93 % of control

**Q.** What about the T/C [1] of the same molecule?
**A.** 87 % of control and 88 % of control

**Q.** What about the T/C [2] of the same molecule?
**A.** 86 % of control

**Q.** What about the T/C [3] of the same molecule?
**A.** 94 % of control

**Q.** What does the source list for `O=C(N1CCC2(CC1)SSC1(CCN(C(=O)C(F)(F)F)CC1)S2)C(F)(F)F`?
**A.** T/C [4]: 87 % of control; T/C [5]: 91 % of control

**Q.** For `CN(C)c1ccc(Cc2c[nH]c3ccccc3c2=O)cc1`, which T/C [1] is on record?
**A.** 94 % of control

**Q.** And the T/C [2]?
**A.** 92 % of control

**Q.** What about the T/C [3] of the same molecule?
**A.** 95 % of control

**Q.** With `CC(=O)OCC1Cn2c(c(-c3ccccc3)c(=O)[nH]c2=S)O1` (stereo not drawn) as the molecule, how does the T/C (dose: 100.0 mg/kg/injection, schedule: Q04DX002 (ip), vehicle: Klucel (hydroxypropylcellulose) (HPC)) read?
**A.** 106 % of control

**Q.** What about the T/C (dose: 200.0 mg/kg/injection, schedule: Q04DX002 (ip), vehicle: Klucel (hydroxypropylcellulose) (HPC)) of the same molecule?
**A.** 107 % of control

**Q.** What about the T/C (dose: 400.0 mg/kg/injection, schedule: Q04DX002 (ip), vehicle: Klucel (hydroxypropylcellulose) (HPC)) of the same molecule?
**A.** 110 % of control

**Q.** How did the T/C (dose: 25.0 mg/kg/injection, schedule: Q01DX005 (ip), vehicle: Klucel (hydroxypropylcellulose) (HPC)) turn out when `[N-]=[N+]=CC(=O)NC(Cc1ccccc1)C(=O)NN` (stereo not drawn) was run?
**A.** 107 % of control

**Q.** What about the T/C [6] of the same molecule?
**A.** 98 % of control

**Q.** What about the T/C [7] of the same molecule?
**A.** 110 % of control

**Q.** Which results are given for `CN1CC2CN(C)CC(C1)C2(O)c1ccccc1` (stereo not drawn)?
**A.** T/C (dose: 12.5 mg/kg/injection, schedule: Q01DX009 (ip), vehicle: saline): 97 % of control; T/C (dose: 25.0 mg/kg/injection, schedule: Q01DX009 (ip), vehicle: saline): 98 % of control

**Q.** How did the T/C (dose: 50.0 mg/kg/injection, schedule: Q01DX005 (ip), vehicle: saline) turn out when `COC(=O)C(C)(O)C(C)C1CO1` (stereo not drawn) was run?
**A.** 98 % of control

**Q.** What about the T/C (dose: 100.0 mg/kg/injection, schedule: Q01DX005 (ip), vehicle: saline) of the same molecule?
**A.** 101 % of control

**Q.** What about the T/C (dose: 200.0 mg/kg/injection, schedule: Q01DX005 (ip), vehicle: saline) of the same molecule?
**A.** 121 % of control

**Q.** What does the source list for `C[N+]1(C)N=C([O-])N(c2ccc(Cl)cc2)C1=O`?
**A.** T/C (dose: 100.0 mg/kg/injection, schedule: Q04DX002 (ip), vehicle: saline): 100 % of control; T/C (dose: 200.0 mg/kg/injection, schedule: Q04DX002 (ip), vehicle: saline): 103 % of control; T/C (dose: 400.0 mg/kg/injection, schedule: Q04DX002 (ip), vehicle: saline): 102 % of control

**Q.** Which T/C (dose: 100.0 mg/kg/injection, schedule: Q04DX003 (ip), vehicle: Klucel (hydroxypropylcellulose) (HPC)) does the source give for `Clc1cc2c(c3ncccc13)OCN(Cc1ccccc1)C2` here?
**A.** 91 % of control

**Q.** What about the T/C (dose: 200.0 mg/kg/injection, schedule: Q04DX003 (ip), vehicle: Klucel (hydroxypropylcellulose) (HPC)) of the same molecule?
**A.** 92 % of control

**Q.** What about the T/C (dose: 400.0 mg/kg/injection, schedule: Q04DX003 (ip), vehicle: Klucel (hydroxypropylcellulose) (HPC)) of the same molecule?
**A.** 92 % of control

**Q.** What does the source list for `CCCc1onc(-c2noc(CCC)c2CC)c1CC`?
**A.** T/C [8]: 100 % of control; T/C (dose: 120.0 mg/kg/injection, schedule: Q01DX005 (ip), vehicle: saline): 95 % of control; T/C (dose: 240.0 mg/kg/injection, schedule: Q01DX005 (ip), vehicle: saline): 103 % of control

**Q.** How did the T/C (dose: 50.0 mg/kg/injection, schedule: Q01DX009 (ip), vehicle: suspension in saline) turn out when `CCC(C)(Oc1ccc(Cc2ccc(Cl)cc2)cc1)C(=O)OCc1cccnc1` (stereo not drawn) was run?
**A.** 95 % of control

**Q.** What about the T/C (dose: 100.0 mg/kg/injection, schedule: Q01DX009 (ip), vehicle: suspension in saline) of the same molecule?
**A.** 95 % of control

**Q.** What about the T/C (dose: 200.0 mg/kg/injection, schedule: Q01DX009 (ip), vehicle: suspension in saline) of the same molecule?
**A.** 94 % of control

**Q.** What does the source list for `CC(=O)C1SCC[S+]1C` (stereo not drawn)?
**A.** T/C (dose: 15.0 mg/kg/injection, schedule: Q01DX005 (ip), vehicle: saline): 102 % of control; T/C (dose: 30.0 mg/kg/injection, schedule: Q01DX005 (ip), vehicle: saline): 102 % of control; T/C [8]: 99 % of control and 106 % of control and 114 % of control

**Q.** What does the source list for `CC(=O)Nc1ccc2c(=O)n(O)c(=O)[nH]c2c1`?
**A.** T/C [6]: 102 % of control; T/C [7]: 103 % of control; T/C (dose: 200.0 mg/kg/injection, schedule: Q01DX005 (ip), vehicle: Klucel (hydroxypropylcellulose) (HPC)): 106 % of control

**Q.** Which T/C (dose: 1.56 mg/kg/injection, schedule: Q01DX005 (ip), vehicle: saline) does the source give for `CCN=C1C=CC(=C(c2ccc(N)cc2)c2ccc(N(CC)CC)c(C)c2)C=C1` here?
**A.** 106 % of control

**Q.** What about the T/C (dose: 3.12 mg/kg/injection, schedule: Q01DX005 (ip), vehicle: saline) of the same molecule?
**A.** 112 % of control

**Q.** Which T/C (dose: 200.0 mg/kg/injection, schedule: Q01DX009 (ip), vehicle: saline with Tween-80) does the source give for `CS(=O)(=O)OCC(=O)NCC(O)CNC(=O)COS(C)(=O)=O` here?
**A.** 175 % of control

**Q.** What about the T/C [5] of the same molecule?
**A.** 181 % of control

**Q.** And the T/C (dose: 400.0 mg/kg/injection, schedule: Q04DX003 (ip), vehicle: saline with Tween-80)?
**A.** 162 % of control and 181 % of control

**Q.** `CN1CC[As+](Cc2ccccc2)(c2ccccc2)CC1` was tested. Which T/C (dose: 100.0 mg/kg/injection, schedule: Q01DX001 (ip), vehicle: saline) did it give?
**A.** 87 % of control

**Q.** What about the T/C (dose: 200.0 mg/kg/injection, schedule: Q01DX001 (ip), vehicle: saline) of the same molecule?
**A.** 102 % of control

**Q.** And the T/C (dose: 400.0 mg/kg/injection, schedule: Q01DX001 (ip), vehicle: saline)?
**A.** 104 % of control

**Q.** Which T/C (dose: 25.0 mg/kg/injection, schedule: Q01DX009 (ip), vehicle: other) does the source give for `O=C1c2ccccc2C(=O)N1CC[P+](c1ccc(Cl)cc1)(c1ccc(Cl)cc1)c1ccc(Cl)cc1` here?
**A.** 95 % of control

**Q.** What does the source list for `Nc1cnns1`?
**A.** T/C (dose: 11.25 mg/kg/injection, schedule: Q01DX009 (ip), vehicle: water): 100 % of control; T/C (dose: 22.5 mg/kg/injection, schedule: Q01DX009 (ip), vehicle: water): 102 % of control; T/C (dose: 45.0 mg/kg/injection, schedule: Q01DX009 (ip), vehicle: water): 105 % of control; T/C (dose: 90.0 mg/kg/injection, schedule: Q01DX009 (ip), vehicle: water): 119 % of control; T/C (dose: 180.0 mg/kg/injection, schedule: Q01DX009 (ip), vehicle: water): 105 % of control
